The numbers were not newly measured in patent US11857566B2, “Sulfonated polystyrene derivative for use in the treatment and/or prophylaxis of cat flu” (UNIWERSYTET JAGIELLONSKI, priority 2018, dated 2024), which cites them from elsewhere.

The conditions of data set [1]: in vivo.

Consider `Nc1nc2c(ncn2CCC(CO)CO)c(=O)[nH]1` [PCV, penciclovir], for which the “concentration of PCV in cats” value (after famciclovir) is listed as “much lower than expected”.

Take `CC(C)[C@H](N)C(=O)OCCOCn1cnc2c(=O)[nH]c(N)nc21` [VCV, Valaciclovir]: in the data set on FHV (in vivo), the “symptoms of the disease in cats who took the drug” value was “did not improve symptoms of the disease”. Further, the “adverse effects in cats” value in data set [1] is “many adverse effects, such as bone marrow suppression or liver and kidney necrosis leading to animal death”.

On to `Nc1nc2c(ncn2COCCO)c(=O)[nH]1` [acyclovir], for which the activity in cats entry in the data set on FHV (compared with HSV-1 in humans) was “did not show equally high activity”. Also, the bioavailability in cats entry (in vivo) is reported as “low”.

For `CC(=O)OCC(CCn1cnc2cnc(N)nc21)COC(C)=O` [famciclovir], the “safety in treatment and prophylaxis of FHV infection in cats” value in data set [1] is on record as “has been shown to be safe”.

Consider `[Cl-].[Li+]` [lithium chloride], for which the “in vitro antiviral activity against FCV” value in the data set on FCV is given as “very high in vitro antiviral activity”.

Take `OC(c1cc(C(F)(F)F)nc2c(C(F)(F)F)cccc12)C1CCCCN1` (stereo not drawn) [mefloquine]: in the data set on FCV, the “in vitro antiviral activity against FCV” value is given as “very high in vitro antiviral activity”.

For the compound `NC(=O)c1ncn([C@@H]2O[C@H](CO)[C@@H](O)[C@H]2O)n1` [ribavirin], the “in vitro antiviral activity against FCV” value in the data set on FCV is listed as “inhibits FCV infection in vitro”.
